Earlier results on two compounds are cited in patent publication US7935365B2, “Glycerophospholipids for the improvement of cognitive functions” (Enzymotec, Ltd., priority 2003, dated 2011).

Read-outs that look alike come from different tables or passages of the source.

`COC(=O)C(c1ccccc1)C1CCCCN1` (racemic) [methylphenidate, DL-threo-Methylphenidate]: the “Improvement of the ADHD index, previously reported” value (Alhambra et al. (1995)) is recorded as “exceed 80%”.
Consider `NC(=O)C[S+]([O-])C(c1ccccc1)c1ccccc1` (centres unmarked) [modafinil], for which the “Improvement of the ADHD index, previously reported” value (Rugino and Copley (2001)) is more than 2.5 SD.
